From Sander's compilation of Henry's law constants (doi:10.1021/je025545i) come the findings set out here.

Molecules are shown by their SMILES.

This data set can be described thus: Henry solubility constant Hcp at 298.15 K (mol/(m3 Pa)). The settings on record: reference: Destaillats and Charles (2002).

As for `C=C/C=N/OCc1c(F)c(F)c(F)c(F)c1F` [PFBHA-propenal], the “Henry solubility constant Hcp” value came out at 0.0095.

As to `C/C=C/C=N/OCc1c(F)c(F)c(F)c(F)c1F` [PFBHA-crotonaldehyde], the “Henry solubility constant Hcp” value came to 0.0068.

As for `CCCCC/C=N/OCc1c(F)c(F)c(F)c(F)c1F` [PFBHA-hexanal], the “Henry solubility constant Hcp” value was found to be 0.0058.

As for `Cc1ccccc1` [methylbenzene], the “Henry solubility constant Hcp” value amounted to 0.002.

With `CC/C(C)=N\OCc1c(F)c(F)c(F)c(F)c1F` [PFBHA-butanone], the “Henry solubility constant Hcp” value was determined as 0.0047.

Turning to `C=NOCc1c(F)c(F)c(F)c(F)c1F` [PFBHA-methanal], the “Henry solubility constant Hcp” value turned out to be 0.016.

As for `c1ccc(-c2ccccc2)cc1` [biphenyl], the “Henry solubility constant Hcp” value is 0.034.

`CCCCCCC/C=N/OCc1c(F)c(F)c(F)c(F)c1F` [PFBHA-octanal]: the “Henry solubility constant Hcp” value worked out at 0.0079.

Turning to `c1ccc2ccccc2c1` [naphthalene], the “Henry solubility constant Hcp” value amounted to 0.024.

On to `CCCCCCCCC/C=N/OCc1c(F)c(F)c(F)c(F)c1F` [PFBHA-decanal], for which the “Henry solubility constant Hcp” value turned out to be 0.024.

With `Fc1c(F)c(F)c(CO/N=C/c2ccccc2)c(F)c1F` [PFBHA-benzaldehyde], the “Henry solubility constant Hcp” value is 0.005.

On to `Fc1c(F)c(F)c(CON=CC=NOCc2c(F)c(F)c(F)c(F)c2F)c(F)c1F` [PFBHA-ethanedial], for which the “Henry solubility constant Hcp” value turned out to be 0.016.

For the compound `CC=NOCc1c(F)c(F)c(F)c(F)c1F` [PFBHA-ethanal], the “Henry solubility constant Hcp” value stood at 0.019.

`CC(C)=NOCc1c(F)c(F)c(F)c(F)c1F` [PFBHA-propanone]: the “Henry solubility constant Hcp” value is 0.011.
